The values that follow come from ChEMBL document CHEMBL1201862, “PubChem BioAssay data set” (2004).

A word on the GI50: it is the concentration at which growth is held to half of that of the control.

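How tested: cells in 96-well plates exposed to compound for 48 hours at five concentrations. At the GI50, growth is halved.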 Calls of active or inactive are those of the source. Rule as the data show it: active = GI50 up to about 1.1 µM and inactive = higher.

Test systems include COLO 205; EKVX; HOP-92; K562; MOLT-4; NCI-H226; OVCAR-5; RXF 393; SF-268; SF-539; SK-MEL-5; SK-OV-3; SNB-75; TK-10; UACC-257; MDA-MB-231; MDA-MB-435; NCI/ADR-RES; T47D.
Common to all, as to assay: DTP human tumour cell line panel, 48 h

On to `COc1cc2c3c(c1OC)-c1ccccc1C(C(OC(C)=O)c1ccccc1)C3N(C)CC2` (configuration not stated), for which the GI50 in the assay with COLO 205 was 30.3 µM (inactive); in the assay on EKVX, > 100 µM (inactive); with HOP-92, 21 µM (inactive); with K562 it was > 10 µM (inactive); with MOLT-4, 7.59 µM (inactive); with NCI-H226, 47.2 µM (inactive). The GI50 in the assay with OVCAR-5 was > 100 µM (inactive); with RXF 393 it was 70.6 µM (inactive); in the assay with SF-268 it was 93.8 µM (inactive); with SF-539 it was > 100 µM (inactive); in the assay with SK-MEL-5, 18.1 µM (inactive); with SK-OV-3 it was > 100 µM (inactive). Moreover, the GI50 is 31.9 µM (inactive) in the assay on SNB-75, > 100 µM (inactive) in the assay on TK-10 and 58.5 µM (inactive) in the assay with UACC-257.
As for `Cc1ccc(S(=O)(=O)N2CC3OC(C)(C)OC3C2CO)cc1` (configuration not stated), the GI50 in the assay on COLO 205, in the assay on HOP-92, with K562, in the assay with MDA-MB-231, in the assay with MDA-MB-435 and with MOLT-4 was > 100 µM (inactive) each time. Further, the GI50 in the assay with NCI-H226, in the assay on NCI/ADR-RES, with OVCAR-5, in the assay with RXF 393, in the assay on SF-268 and in the assay on SF-539 was > 100 µM (inactive) each time. Besides, the GI50 with SK-MEL-5, with SK-OV-3, in the assay on SNB-75, in the assay on T47D, with TK-10 and with UACC-257 was > 100 µM (inactive) in each case.
For the compound `Cc1cc2occ(C)c(=O)c2c2c1OC(C)(C)S2`, the GI50 in the assay on COLO 205 is > 100 µM (inactive); with EKVX it was > 100 µM (inactive); in the assay on HOP-92, 55.3 µM (inactive); in the assay with K562, 51.9 µM (inactive); with MOLT-4, 37.3 µM (inactive); in the assay with NCI-H226 it was > 100 µM (inactive). Moreover, the GI50 in the assay on OVCAR-5 was > 100 µM (inactive); in the assay on RXF 393, 88.1 µM (inactive); with SF-268 it was > 100 µM (inactive); in the assay on SF-539 it was > 100 µM (inactive); in the assay on SK-MEL-5, > 100 µM (inactive); in the assay with SK-OV-3 it was > 100 µM (inactive). The GI50 was 88.5 µM (inactive) with SNB-75, > 100 µM (inactive) in the assay on TK-10 and > 100 µM (inactive) in the assay on UACC-257.
For `CCOC(=O)C1=C(Nc2ccccc2)SC/C1=N\NC(=O)Cc1ccccc1`, the GI50 in the assay with COLO 205, with EKVX, in the assay with HOP-92, in the assay on K562, in the assay with MOLT-4 and with NCI-H226 was > 100 µM (inactive) each time. For the same compound, the GI50 in the assay on OVCAR-5, in the assay on RXF 393, with SF-268, with SF-539, in the assay on SK-MEL-5 and in the assay on SK-OV-3 was > 100 µM (inactive) throughout. For the same compound, the GI50 in the assay on SNB-75, in the assay on TK-10 and with UACC-257 was > 100 µM (inactive) each time.
`COc1cc2c(cc1OC)C1(c3ccccc3)ON=C(c3ccccc3)N1CS2` (configuration not stated): the GI50 with COLO 205 is > 100 µM (inactive); in the assay with EKVX it was > 100 µM (inactive); with HOP-92, 39.4 µM (inactive); in the assay on K562 it was 52.7 µM (inactive); in the assay on MOLT-4 it was 16.1 µM (inactive); in the assay on NCI-H226, > 100 µM (inactive). Moreover, the GI50 in the assay on OVCAR-5 is > 100 µM (inactive); in the assay on RXF 393 it was 63 µM (inactive); in the assay with SF-268, > 100 µM (inactive); in the assay with SF-539 it was > 100 µM (inactive); with SK-MEL-5, > 100 µM (inactive); in the assay on SK-OV-3 it was > 100 µM (inactive). Besides, the GI50 in the assay with SNB-75, with TK-10 and in the assay on UACC-257 was > 100 µM (inactive) in each case.
As to `O=C1[C@@H](O)[C@@H]2CCCC[C@@]23CCCN13`, the GI50 is > 100 µM (inactive) in the assay on COLO 205; > 100 µM (inactive) with EKVX; 36.6 µM (inactive) in the assay with HOP-92; > 100 µM (inactive) with K562; > 100 µM (inactive) with MDA-MB-231; > 100 µM (inactive) in the assay with MDA-MB-435. The GI50 in the assay with MOLT-4, with NCI-H226, with NCI/ADR-RES, in the assay with OVCAR-5, with RXF 393 and with SF-268 was > 100 µM (inactive) in each case. Moreover, the GI50 in the assay on SK-MEL-5 is > 100 µM (inactive); in the assay with SK-OV-3, > 100 µM (inactive); in the assay with SNB-75, 37.6 µM (inactive); in the assay on T47D, > 100 µM (inactive); with TK-10, > 100 µM (inactive); in the assay with UACC-257, > 100 µM (inactive).
On to `CCCCCCCCCCCCC(CC)CCCCC(=O)O` (configuration not stated), for which the GI50 is > 58.3 µM (inactive) in the assay with COLO 205; > 56.2 µM (inactive) in the assay with EKVX; > 73.3 µM (inactive) in the assay with HOP-92; 40.6 µM (inactive) in the assay on K562; 27 µM (inactive) in the assay with MOLT-4; > 100 µM (inactive) in the assay on NCI-H226. Besides, the GI50 in the assay on OVCAR-5 is > 100 µM (inactive); in the assay with RXF 393 it was > 60 µM (inactive); with SF-268, > 100 µM (inactive); with SF-539, > 44.6 µM (inactive); in the assay on SK-MEL-5, > 100 µM (inactive); in the assay on SK-OV-3, > 100 µM (inactive). The GI50 in the assay on SNB-75, with TK-10 and with UACC-257 was > 100 µM (inactive) in each case.
Turning to `COc1cc2c(c(OC)c1OC)-c1ccc(SC)c(=O)cc1[C@@H](NCc1cccc(C#N)c1)CC2`, the GI50 in the assay on COLO 205 is 0.0202 µM (active); in the assay with EKVX it was 0.0973 µM (active); in the assay on HOP-92, 0.0401 µM (active); in the assay on K562, 0.0361 µM (active); in the assay with MOLT-4, 0.0328 µM (active); with NCI-H226, 0.0226 µM (active). The GI50 in the assay on OVCAR-5 was 0.037 µM (active); in the assay on RXF 393, 0.00408 µM (active); in the assay with SF-268 it was 0.0164 µM (active); in the assay on SF-539 it was 0.014 µM (active); with SK-MEL-5, 0.00693 µM (active); in the assay on SK-OV-3, 0.0115 µM (active). The GI50 is 0.00516 µM (active) with SNB-75, 0.0841 µM (active) with TK-10 and 0.0448 µM (active) in the assay on UACC-257.
Take `CN1C(=O)N(c2ccccc2)C2(CCN(CC3COc4ccccc4O3)CC2)C1=O` (configuration not stated): the GI50 in the assay on COLO 205 is 87.5 µM (inactive); in the assay on EKVX, > 100 µM (inactive); in the assay on HOP-92, 66.5 µM (inactive); in the assay with K562 it was 99.3 µM (inactive); with MDA-MB-231, > 100 µM (inactive); in the assay on MDA-MB-435, > 100 µM (inactive). The GI50 was 65.9 µM (inactive) with MOLT-4; 59.2 µM (inactive) in the assay on NCI-H226; > 100 µM (inactive) in the assay with NCI/ADR-RES; > 100 µM (inactive) with OVCAR-5; > 100 µM (inactive) in the assay with RXF 393; > 100 µM (inactive) in the assay on SF-268. The GI50 in the assay on SF-539 is > 100 µM (inactive); in the assay with SK-MEL-5 it was 71.6 µM (inactive); with T47D, > 100 µM (inactive); in the assay on TK-10 it was > 100 µM (inactive); in the assay with UACC-257 it was 82.2 µM (inactive).
Regarding `COc1ccc(C(=C[N+](=O)[O-])c2ccc(OC)cc2)cc1`, the GI50 with COLO 205 was 9.79 µM (inactive); in the assay with EKVX, 42.3 µM (inactive); in the assay on HOP-92 it was 25.4 µM (inactive); with K562, 3.69 µM (inactive); in the assay with MOLT-4, 3.17 µM (inactive); in the assay on NCI-H226, 24.3 µM (inactive). Further, the GI50 in the assay on OVCAR-5 was 38.8 µM (inactive); in the assay with RXF 393, 12.3 µM (inactive); in the assay with SF-268, 20 µM (inactive); in the assay on SF-539 it was 10.9 µM (inactive); in the assay with SK-MEL-5, 28.6 µM (inactive); in the assay on SK-OV-3 it was 14.3 µM (inactive). Further, the values for the GI50 in the assay on SNB-75, in the assay with TK-10 and in the assay on UACC-257 were 1.87 µM (inactive), 25.4 µM (inactive) and 8.59 µM (inactive), respectively.
Consider `O=C(Nc1ccc(Sc2ccc(/N=N/c3c(O)c(S(=O)(=O)O)cc4cc(S(=O)(=O)O)ccc34)cc2)cc1)c1ccc(/N=N/c2c(O)ccc3c(S(=O)(=O)O)cc(S(=O)(=O)O)cc23)cc1`, for which the GI50 in the assay with COLO 205 was 15.8 µM (inactive); in the assay on EKVX, 17.3 µM (inactive); in the assay on HOP-92 it was 78 µM (inactive); in the assay on K562, 10.1 µM (inactive); in the assay with MOLT-4, 12.8 µM (inactive); in the assay on NCI-H226, > 100 µM (inactive). Moreover, the GI50 with OVCAR-5 was 33.4 µM (inactive); with RXF 393, 50.6 µM (inactive); in the assay on SF-268, 41 µM (inactive); with SF-539, 46.9 µM (inactive); with SK-MEL-5, 7.5 µM (inactive); in the assay with SK-OV-3, > 100 µM (inactive). Further, the GI50 in the assay with SNB-75 is > 100 µM (inactive); with TK-10, 60.8 µM (inactive); in the assay with UACC-257, 11.2 µM (inactive).
Take `NC(=O)C(N)CC12CC3CC(CC(C3)C1)C2` (configuration not stated): the GI50 with EKVX is 29.6 µM (inactive); in the assay with HOP-92, 15.5 µM (inactive); in the assay with K562, 28.9 µM (inactive); in the assay on MDA-MB-231, 14 µM (inactive); in the assay on MDA-MB-435 it was 16 µM (inactive); in the assay on MOLT-4, 21 µM (inactive). Besides, the GI50 was 25.2 µM (inactive) in the assay on NCI/ADR-RES; 22.8 µM (inactive) in the assay with OVCAR-5; 16.3 µM (inactive) in the assay with RXF 393; 22.4 µM (inactive) with SF-268; 15.2 µM (inactive) in the assay on SK-MEL-5; 33.3 µM (inactive) in the assay with SK-OV-3. Besides, the GI50 is 32.7 µM (inactive) in the assay on SNB-75, 29.6 µM (inactive) in the assay on TK-10 and 27.9 µM (inactive) in the assay on UACC-257.
For `CCCCOP1(=O)CC(C)=C(Cl)C(C)(OC)C1` (configuration not stated), the GI50 is > 100 µM (inactive) in the assay on COLO 205; > 100 µM (inactive) in the assay on EKVX; 43.7 µM (inactive) in the assay with HOP-92; 29.6 µM (inactive) in the assay with K562; 34.4 µM (inactive) in the assay with MOLT-4; > 100 µM (inactive) with NCI-H226. Also, the GI50 in the assay with RXF 393, with SF-268, with SF-539, with SK-MEL-5, with SK-OV-3 and in the assay on SNB-75 was > 100 µM (inactive) throughout. Further, the GI50 in the assay with TK-10 and with UACC-257 was > 100 µM (inactive) in each case.
